Laboratory results as given in EPA's CvTdb concentration-time database.

Assays:
Rat [1] = test: concentration in liver after dosing; details: 3 h; dosed: Perfluorohexane-1-sulphonic acid – potassium salt; 16 mg/kg; oral; Female; F344
Rat [2] = test: concentration in kidney after dosing; details: 6 h; dosed: Perfluorohexane-1-sulphonic acid – potassium salt; 16 mg/kg; oral; Female; Harlan Sprague Dawley
Rat [3] = test: concentration in liver after dosing; details: 48 h; dosed: Perfluorohexane-1-sulphonic acid – potassium salt; 16 mg/kg; oral; Female; Harlan Sprague Dawley
Rat [4] = test: concentration in plasma after dosing; details: 1 h; dosed: Perfluorohexane-1-sulphonic acid – potassium salt; 16 mg/kg; oral; Male; F344
Rat [5] = test: concentration in kidney after dosing; details: 1200 h; dosed: Perfluorohexane-1-sulphonic acid – potassium salt; 16 mg/kg; oral; Male; Harlan Sprague Dawley
Rat [6] = test: concentration in plasma after dosing; details: dosed: Perfluorohexane-1-sulphonic acid – potassium salt, 4 mg/kg, oral, Male, F344
Rat [7] = test: concentration in liver after dosing; details: 6 h; dosed: Perfluorohexane-1-sulphonic acid – potassium salt; 16 mg/kg; oral; Female; Harlan Sprague Dawley
Rat [8] = test: concentration in plasma after dosing; details: 5 min; dosed: Pyridine; 10 mg/kg; iv; Male; F344
Rat [9] = test: concentration in plasma after dosing; details: 10 min; dosed: Pyridine; 10 mg/kg; oral; Male; F344
Rat [10] = test: concentration in plasma after dosing; details: 2 min; dosed: Pyridine; 10 mg/kg; iv; Male; F344
Rat [11] = test: concentration in plasma after dosing; details: dosed: Pyridine, 25 mg/kg, oral, Male, F344
Rat [12] = test: concentration in plasma after dosing; details: dosed: Pyridine, 5 mg/kg, iv, Male, F344
Mouse [13] = test: concentration in plasma after dosing; details: 5 min; dosed: 2,4-Dichlorophenoxyacetic acid; 2.0 mg/kg; oral; Male; B6C3F1
Mouse [14] = test: concentration in plasma after dosing; details: dosed: 2,4-Dichlorophenoxyacetic acid, 1.0 mg/kg, oral, Male, B6C3F1
Rat [15] = test: concentration in plasma after dosing; details: dosed: Methyleugenol, 37 mg/kg, oral, Male, F344/N
Rat [16] = test: concentration in plasma after dosing; details: dosed: Methyleugenol, 37 mg/kg, oral, Female, F344/N
Mouse [17] = test: concentration in plasma after dosing; details: 2 h; dosed: 2-Hydroxy-4-methoxybenzophenone; 250 mg/kg; oral; Male; B6C3F1
Mouse [18] = test: concentration in plasma after dosing; details: dosed: 2-Hydroxy-4-methoxybenzophenone, 100 mg/kg, oral, Male, B6C3F1
Mouse [19] = test: concentration in plasma after dosing; details: 10 min; dosed: 2-Hydroxy-4-methoxybenzophenone; 500 mg/kg; oral; Male; B6C3F1
Rat [20] = test: concentration in plasma after dosing; details: 0.25 h; dosed: 2-Hydroxy-4-methoxybenzophenone; 500 mg/kg; oral; Female; F344
Mouse [21] = test: concentration in plasma after dosing; details: 3 h; dosed: 2-Hydroxy-4-methoxybenzophenone; 50 mg/kg; iv; Male; B6C3F1
Mouse [22] = test: concentration in plasma after dosing; details: 2 h; dosed: 2-Hydroxy-4-methoxybenzophenone; 50 mg/kg; iv; Female; B6C3F1
Rat [23] = test: concentration in plasma after dosing; details: dosed: 2-Hydroxy-4-methoxybenzophenone, 500 mg/kg, oral, Male, F344
Rat [24] = test: concentration in brain after dosing; details: 0.5 h; dosed: alpha-Thujone; 25 mg/kg; oral; Male; Harlan Sprague Dawley
Rat [25] = test: concentration in plasma after dosing; details: 12 h; dosed: alpha-Thujone; 50 mg/kg; oral; Male; Harlan Sprague Dawley
Rat [26] = test: concentration in brain after dosing; details: 5 min; dosed: alpha-Thujone; 50 mg/kg; oral; Female; Harlan Sprague Dawley
Rat [27] = test: concentration in plasma after dosing; details: 2 min; dosed: alpha-Thujone; 50 mg/kg; oral; Male; Harlan Sprague Dawley
Rat [28] = test: concentration in plasma after dosing; details: 12 h; dosed: alpha-Thujone; 50 mg/kg; oral; Female; Harlan Sprague Dawley
Rat [29] = test: concentration in plasma after dosing; details: 3 h; dosed: alpha-Thujone; 25 mg/kg; oral; Female; Harlan Sprague Dawley
Rat [30] = test: concentration in brain after dosing; details: 0.5 h; dosed: alpha-Thujone; 50 mg/kg; oral; Female; Harlan Sprague Dawley
Rat [31] = test: concentration in brain after dosing; details: 1.5 h; dosed: alpha-Thujone; 25 mg/kg; oral; Male; Harlan Sprague Dawley
Rat [32] = test: concentration in plasma after dosing; details: 2 min; dosed: alpha-Thujone; 25 mg/kg; oral; Female; Harlan Sprague Dawley
Rat [33] = test: concentration in plasma after dosing; details: 0.25 h; dosed: Primidone; 80 mg/kg; oral; Female; F344
Rat [34] = test: concentration in plasma after dosing; details: 0.5 h; dosed: Primidone; 130 mg/kg; oral; Female; F344
Rat [35] = test: concentration in plasma after dosing; details: 0.5 h; dosed: Primidone; 130 mg/kg; oral; Male; Harlan Sprague Dawley

O=S(=O)([O-])C(F)(F)C(F)(F)C(F)(F)C(F)(F)C(F)(F)C(F)(F)F.[K+] [Perfluorohexane-1-sulphonic acid – potassium salt]
Details	concentration in kidney [ng/g]	concentration in liver [ng/g]	concentration in plasma [ng/mL]
Rat [1]	–	63900	–
Rat [2]	36500	–	–
Rat [3]	–	13300	–
Rat [4]	–	–	55600
Rat [5]	4040	–	–
Rat [7]	–	33000	–

Rat [6]
Details	concentration in plasma [ng/mL]
0.25 h	5490
12 h	31800
528 h	8940

c1ccncc1 [Pyridine]
Details	concentration in plasma [ng/mL]
Rat [8]	8970
Rat [9]	4950
Rat [10]	1310

concentration in plasma [ng/mL]
Details	0.25 h	0.5 h	6 h
Rat [11]	–	15300	15100
Rat [12]	3730	–	1300

O=C(O)COc1ccc(Cl)cc1Cl [2,4-Dichlorophenoxyacetic acid]
Details	concentration in plasma [ng/mL]
Mouse [13]	4560

Mouse [14]
Details	concentration in plasma [ng/mL]
0.25 h	3930
0.5 h	3060
2 h	1790
3 h	990
5 min	3890
6 h	324
8 h	161
10 min	4270

C=CCc1ccc(OC)c(OC)c1 [Methyleugenol]
concentration in plasma [ng/mL]
Details	Rat [15]	Rat [16]
6 h	11.1	8.85
10 min	176	254

O=C(c1ccccc1)c1ccc(O)cc1O [2,4-Dihydroxybenzophenone]
Details	concentration in plasma [ng/mL]
Mouse [17]	338
Mouse [19]	1690
Mouse [21]	232
Mouse [22]	39.7
Rat [20]	1540

concentration in plasma [ng/mL]
Details	0.25 h	2 h	2.5 min	3 h	10 h	10 min
Mouse [18]	352	173	64.5	105	–	161
Rat [23]	–	–	–	–	107	78.6

CC(C)[C@]12CC(=O)[C@H](C)[C@H]1C2 [alpha-Thujone]
Details	concentration in brain [ng/g]	concentration in plasma [ng/mL]
Rat [24]	285	–
Rat [25]	–	20
Rat [26]	3080	–
Rat [27]	–	152
Rat [28]	–	28.6
Rat [29]	–	176
Rat [30]	8580	–
Rat [31]	592	–
Rat [32]	–	10.6

CCC1(c2ccccc2)C(=O)NCNC1=O [Primidone]
Details	concentration in plasma [ng/mL]
Rat [33]	25300
Rat [34]	24000
Rat [35]	47000
